This is an account of results in ChEMBL document CHEMBL1134000, “Structure elucidation and conformational properties of a novel bioactive clerodane diterpene using a combination of high field NMR spectroscopy, computational analysis and X-ray diffraction” (2001).

Converted amounts (≈) assume the structure as drawn.

One assay deals with Escherichia coli. Description: Minimum inhibitory concentration against Escherichia coli (ATCC 25922). The class given is functional.
The next assay relates to Klebsiella pneumoniae. Description: Minimum inhibitory concentration against Klebsiella pneumoniae (ATCC 13883). It counts as functional.
Assay [1] in a line: Minimum inhibitory concentration against Pseudomonas aeruginosa. It counts as functional, […] aeruginosa.
For assay [2], the system named is Staphylococcus epidermidis. As to the kind of experiment: Minimum inhibitory concentration against Staphylococcus epidermidis (ATCC 12228). It counts as functional.
In another assay the test system is Staphylococcus hominis. Description: Minimum inhibitory concentration against Staphylococcus hominis (ATCC 27844). It counts as functional.
Another assay relates to Staphylococcus aureus. As to the kind of experiment: Minimum inhibitory concentration against Staphylococcus aureus (ATCC 6538). The class given is functional.

Broadly, the MIC50 is the lowest concentration that inhibits either 50% of growth or 50% of the strains tested, depending on the study. Lower therefore signals higher susceptibility. On to `CC(=O)OCC1=CCC[C@@H]2[C@@](C)(CC[C@H](C)CC(=O)O)[C@H](C)CC[C@]12C`, for which the MIC50 was determined as 1370 µM (≈ 499 µg/mL) with Escherichia coli; 1370 µM (≈ 499 µg/mL) against Klebsiella pneumoniae; 1370 µM (≈ 499 µg/mL) in assay [1]; 85 µM (≈ 31 µg/mL) in assay [2]; 85 µM (≈ 31 µg/mL) in the assay on Staphylococcus hominis; 85 µM (≈ 31 µg/mL) in the assay with Staphylococcus aureus.

With `C=C[C@](C)(O)CC[C@@H]1[C@@]2(C)CCCC(C)(C)[C@@H]2CC[C@@]1(C)O` [SCLAREOL], the MIC50 (in assay [2]; with Staphylococcus hominis; against Staphylococcus aureus) was 320 µM (≈ 98.7 µg/mL) in each case.

With `C[C@@H](CC[C@@]1(C)[C@H](C)CC[C@]2(C)C(CO)=CCC[C@H]12)CC(=O)O`, the MIC50 stood at 930 µM (≈ 300 µg/mL) with Escherichia coli; 930 µM (≈ 300 µg/mL) with Klebsiella pneumoniae; 930 µM (≈ 300 µg/mL) in assay [1]; 1240 µM (≈ 400 µg/mL) in assay [2]; 1240 µM (≈ 400 µg/mL) against Staphylococcus hominis; 1240 µM (≈ 400 µg/mL) in the assay with Staphylococcus aureus.

On to `CN[C@@H]1[C@H](O[C@H]2[C@H](O[C@H]3[C@H](O)[C@@H](O)[C@H](N=C(N)N)[C@@H](O)[C@@H]3N=C(N)N)O[C@@H](C)[C@]2(O)C=O)O[C@@H](CO)[C@H](O)[C@H]1O` [STREPTOMYCIN], for which the MIC50 was 0.6 µM (≈ 0.349 µg/mL) with Escherichia coli; 0.6 µM (≈ 0.349 µg/mL) against Klebsiella pneumoniae; 2.1 µM (≈ 1.22 µg/mL) in assay [2]; 2.1 µM (≈ 1.22 µg/mL) with Staphylococcus hominis; 2.1 µM (≈ 1.22 µg/mL) in the assay on Staphylococcus aureus.
